Where two headings read alike, the source gives them in different places.
What was measured:
[1] = test system: HepG2 cells; test: Cytotoxicity in HepG2 cells (intracellular ATP, ATPlite, 48 h); assay type: cell-based, human; conditions: IC50 HepG2 divided by IC50 P. falciparum gametocytes
[2] = as above; assay type: cell-based, human; conditions: human, HepG2 cells
[3] = test system: P. falciparum stage V gametocytes; test: Gametocytocidal ATP bioluminescence assay (single point 5 μM and 1 μM, dose-response); assay type: cell-based, Plasmodium falciparum; conditions: for Ratio IC50 HepG2/IC50 P. falciparum: IC50 HepG2 divided by IC50 P. falciparum gametocytes
[4] = test system: P. falciparum asexual stages; conditions: TCAMS data, cited from earlier work
[5] = test system: luciferase reaction (BacTiter-Glo); test: Interference assay (inhibition of the BacTiter-Glo luciferase reaction); assay type: biochemical; design: concentration or dose not given beside the values; conditions: ATP interference assay
Protocol: To discard possible false-positive results, we performed an interference assay in parallel. […] […]. The ATP solution was made by dissolving ATP powder (ATP standard from the ATPlite 1 step assay kit, reference 6016731, Perkin Elmer) in culture medium. The positive control used was the Luciferase Inhibitor I Calbiochem (Merck, 119113) at 100 μM.

[6] = IC50 per ratio column head, unit inferred, read-out: Cytotoxicity in HepG2
[7] = Plasmodium falciparum, P. falciparum gametocytes, average, read-out: IC50 Pf Gametocytes average, IC50 (µM) average
[8] = Plasmodium falciparum, sexual stages (gametocytes), dose-response, read-out: IC50 sexual
[9] = P. falciparum asexual stages, read-out: IC50 (µM) Pf asexual stages
[10] = asexual stages, read-out: IC50 asexual
[11] = HepG2, 48 h exposure, intracellular ATP, read-out: IC50 (μM) Cytotoxicity HepG2
[12] = sexual stages (gametocytes), dose-response, read-out: IC50 sexual

Compound	% Control luminiscence [5]	Ratio IC50 HepG2/IC50 P. falciparum [1]	IC50 at 48 h [2, 6]	Ratio IC50 HepG2/IC50 P. falciparum [3]	IC50 [3, 7]	IC50 [3, 8]	IC50 [4, 9]	IC50 [4, 10]	IC50 at 48 h [2, 11]	IC50 [3, 12]	%_Inh ([3]; gametocytes, primary screen at 5 μM (S10 Table, MCSI analogs))
CCc1nn2c(Nc3ccncc3)cc(C)nc2c1-c1ccccc1 [TCMDC-124917]	93%	>13	> 25 µM	>13	1.9 µM	1.9 µM	0.2 µM	0.203 µM			
FC(F)(F)c1ccc2[nH]c(-c3cccc(-c4ccc(CNCCN5CCNCC5)cc4)c3)nc2c1 [TCMDC-132872]	100%	15	12.6 µM	15	0.86 µM		0.86 µM	0.862 µM	13 µM		
Fc1ccc(NC(=S)NN=Cc2ccccn2)cc1 [TCMDC-125521]	100%	195	23.4 µM	195	0.12 µM		0.77 µM	0.775 µM	23 µM		
O=C(c1ccc([N+](=O)[O-])o1)N1CCC(Cc2ccc(C(F)(F)F)cc2)CC1 [TCMDC-124805]	100%	55	14.1 µM	55	0.26 µM	0.257 µM	0.17 µM	0.166 µM	14 µM		
COc1ccc(Nc2nccc(-c3ccc4ccnc(NCCCCN)c4c3)n2)cc1 [TCMDC-136642]	99%	>77	> 25 µM	>77	0.33 µM	0.327 µM		0.75 µM			
COCCCNC(=S)NN=C(C)c1ccccn1 [TCMDC-137907]	100%	106	17 µM	106	0.16 µM		0.3 µM	0.296 µM			
c1ccc2sc(Sc3ncnc4sccc34)nc2c1 [TCMDC-125539]	100%	>50	> 25 µM	>50	0.5 µM	0.497 µM	0.73 µM	0.734 µM			
COc1cccc(C(=O)NC(C=Cc2ccccc2)c2cc(Cl)c3cccnc3c2O)c1 (stereo not shown) [TCMDC-125550]	100%	>43	> 25 µM	>43	0.59 µM			0.859 µM		0.585 µM	
Ic1cc(CNC2CCCCC2)ccc1OCc1cccc(COc2ccc(CNC3CCCCC3)cc2I)c1 [TCMDC-137261]	100%	>75	> 25 µM	>75	0.33 µM			0.829 µM		0.333 µM	
C=CCN(C(=O)c1ccc(Cl)c([N+](=O)[O-])c1)c1nc(-c2ccccc2)cs1 [TCMDC-124436]	100%	>237	> 25 µM	>237	0.11 µM	0.105 µM	0.4 µM	0.398 µM			
Cc1cccc2nc(-c3ccc(-c4cccc(CN5CCC(CCN6CCCCC6)CC5)c4)s3)[nH]c12.O=C(O)C(F)(F)F [TCMDC-133923]	100%		3.87 µM	8	0.46 µM	0.463 µM		0.14 µM			107.301%
CC[C@H]1CN2CCc3cc(OC)c(OC)cc3[C@@H]2C[C@@H]1C[C@H]1NCCc2cc(OC)c(OC)cc21 [TCMDC-125531]	95%		21 µM		0.35 µM	0.347 µM	0.21 µM	0.214 µM	21 µM		
COc1cc2nc(N3CCC(CNCc4ccc(-c5ccc(C(F)(F)F)cc5)cc4)CC3)nc(N)c2cc1OC [TCMDC-138757]	100%		< 1.56 µM	<88	0.0177 µM			0.087 µM		0.018 µM	

The next lines start with results.

% Control luminiscence [5]	Compound	Ratio IC50 HepG2/IC50 P. falciparum [1]	IC50 at 48 h [2, 6]	Ratio IC50 HepG2/IC50 P. falciparum [3]	IC50 [3, 7]	IC50 [3, 8]	IC50 [4, 9]	IC50 [4, 10]	IC50 at 48 h [2, 11]	IC50 [3, 12]	%_Inh ([3]; gametocytes, primary screen at 5 μM (S10 Table, MCSI analogs))
100%	NCc1ccc(CNCc2cccc(-c3ccc(-c4nc5ccccc5[nH]4)cc3)c2)cc1 [TCMDC-132815]	45	21.8 µM	45	0.48 µM			0.717 µM		0.483 µM	
100%	CN(C)CCCNc1nccc(N(C)c2ccc(NC(=O)Nc3cc(C(F)(F)F)ccc3F)cc2)n1 [TCMDC-141633]	17	17.3 µM	17	1 µM			0.98 µM		0.997 µM	
100%	Cc1ccc(C)c(CC(=O)N2CCC(n3c(C)nc4ccc(F)cc43)CC2)c1 [TCMDC-124790]	>27	> 25 µM	>27	0.92 µM	0.923 µM	0.19 µM	0.193 µM			
100%	COc1cccc(Nc2c(C(N)=O)cnc3ccc(-c4ccc([S+](C)[O-])cc4)cc23)c1 (stereo not shown) [TCMDC-135184]	>18	> 25 µM	>18	1.43 µM	1.43 µM	0.19 µM	0.186 µM			
100%	CCCCN1CCN(CCCCNc2c3ccccc3nc3ccccc23)CC1 [TCMDC-137569]	11	12.7 µM	11	1.19 µM		0.17 µM	0.167 µM	13 µM		
100%	CCN(CC)C(=NC(=N)Nc1ccc(Cl)cc1)NCCCCCCCCNC(=NC(=N)Nc1ccc(Cl)cc1)N(CC)CC [TCMDC-131812]	>24	> 25 µM	>24	1.03 µM			0.403 µM			
93%	c1cc(Nc2nc(-c3ccc(-c4csc(Nc5ccncc5)n4)cc3)cs2)ccn1 [TCMDC-139725]	67	17.3 µM	67	0.26 µM			0.117 µM			
100%	Cc1cccc2nc(-c3ccc(-c4cccc(CNCCN5CCNCC5)c4)cc3)[nH]c12 [TCMDC-132867]	16	13.4 µM	16	0.84 µM		1.23 µM	1.23 µM	13 µM		
100%	Cc1n[nH]c2ccc(-c3ccc4nccc(N5CCC(N)CC5)c4c3)cc12 [TCMDC-134315]	30	11.7 µM	30	0.38 µM	0.383 µM	0.59 µM	0.591 µM	12 µM		
100%	Fc1ccc2[nH]c(-c3cccc(-c4cccc(CNCCN5CCNCC5)c4)c3)nc2c1 [TCMDC-132860]	27	19.6 µM	27	0.74 µM	0.737 µM	0.84 µM	0.842 µM	20 µM		
98%	COc1cc2nc(NCC3CCN(c4nc(N)c5cc(OC)c(OC)cc5n4)CC3)nc(N)c2cc1OC [TCMDC-138723]	>18	> 25 µM	>18	1.42 µM			0.776 µM			
100%	Cc1cc(Nc2ccncc2)n2nc(C)c(-c3ccccc3Cl)c2n1 [TCMDC-124918]	>13	> 25 µM	>13	1.94 µM	1.94 µM	0.65 µM	0.654 µM			
100%	Fc1ccc2[nH]c(-c3cccc(-c4ccc(CNCCN5CCNCC5)cc4)c3)nc2c1 [TCMDC-132863]	17	24.2 µM	17	1.45 µM	1.45 µM	0.9 µM	0.904 µM	24 µM		
100%	CN(C)CCNC(=O)c1ccc(-c2cnc3ccc(NCc4ccc(Cl)c(Cl)c4)nn23)cc1 [TCMDC-136678]	50	16.7 µM	50	0.33 µM	0.333 µM	0.91 µM	0.913 µM	17 µM		
100%	COc1cc(-c2cc(-c3ccc(S(C)(=O)=O)cc3)cnc2N)ccc1O [TCMDC-133343]		> 25 µM		1.24 µM	1.24 µM	0.1 µM	0.101 µM			

From paper PMC4552634, “A New Set of Chemical Starting Points with Plasmodium falciparum Transmission-Blocking Potential for Antimalarial Drug Discovery” (PLoS ONE, 2015)
